Data reported in patent EP1210336B1, “SUBSTITUTED BENZIMIDAZOLES AS NON-NUCLEOSIDE INHIBITORS OF REVERSE TRANSCRIPTASE” (THE UNITED STATES OF AMERICA, as represented by the …, priority 1999, dated 2001).
Where two headings read alike, the source gives them in different places.

Key:
WT virus (NL4-3) = test: microbe, parasite or virus in culture; type: cell-based, HIV-1; conditions: Human immunodeficiency virus 1, NL43, CEM-SS, read-out: EC50
Description: Evaluation of these compounds for the inhibition of HIV-1 was determined as the fifty percent cell culture inhibitory concentration (CIC50) in CEMSS cell culture with WT virus (NL4-3).
(§1) In this Example, the antiviral and cellular toxicity of NNRTIs was investigated, using the cytopathic cell killing assay described by Yang (Yang et al., "Characteristics of a Group of Non-nucleoside Reverse Transcriptase Inhibitors with Structural Diversity and Potent Anti-Human Immunodeficiency Virus Activity," Leukemia 9:S75-S85 [1995]). Briefly, in this method cells (e.g., the CEM-SS cell line, available from the NIAID AIDS Research and Reference Program [ARRRP]) were seeded at a density of 5 x 10^3 cells/well, into the wells of a 96-well microtiter plate. The cells were then infected with HIV virus (either mutant or WT), at a multiplicity of infection (MOI) previously determined to provide complete cell killing by 6 days of culture post-infection (e.g., MOI of 0.01-0.05). Each of the HIV isolates was pre-titered to induce equivalent levels of infection based on cell killing or virus production, prior to their use in these assays. A range of test compound concentrations was added to the wells in triplicate (e.g., serial half-log dilutions) to evaluate inhibition of HIV infection. Controls for each assay included drug controls (drug colorimetric control wells), drug cytotoxicity control wells (cells with drug), virus control wells (cells with virus), and cell viability controls (cells only). Positive control drugs (e.g., AZT and ddC) were also run in parallel.
(§2) After six days of incubation at 37°C, cell viability was determined spectrophotometrically at 450 nm for each well, using the metabolic reduction of XTT to a soluble colored formazan. (See, Gartner and Popovic, "Virus Isolation and Production, in Aldovini and Walker (eds.), Techniques in HIV Research, Stockton Press, NY, pp. […] [1991]; and Nara and Fischinger, "Quantitative Infectivity Assay for HIV-1 and HIV-2," Nature 332:469-470 [1988]).
(§3) The in vitro therapeutic index (TI50) was defined as the fold-difference between the EC50 and IC50. The results for the various compounds are included in Figures 8 and 19.

NL4-3 (WT) = test: Cytopathic cell killing assay, cross-resistance profile, infected MT-4 cells; type: cell-based, HIV-1
Source text: (§4) The various HIV isolates tested in the Figures are those corresponding to wild-type virus (NL4-3) and the other strains listed by their RT mutations. The three 4xAZT isolates included in the Figures represent AZT drug-resistant variants. For example, the 4xAZT/L100I isolate has five mutations: four mutations confer increased resistance to AZT, and the other mutation is located within the NNRTI binding pocket. TZB and nevir. (nevirapine) are two well-known NNRTIs, included in this experiment for comparison purposes. […]
as §1, §2, §3

[1] = tested on: HIV-1 isolate 4xAZT/Y181C; test: as above; type: cell-based; conditions: isolate 4XAZT /Y181C
Source text: as §4, §1, §2, §3

HIV-1 isolate 4xAZT = test: as above; type: cell-based; conditions: isolate 4XAZT
Source text: as §4, §1, §2, §3

HIV-1 variant A98G = test: as above; type: cell-based
Source text: as §4, §1, §2, §3

HIV-1 variant K101E = test: as above; type: cell-based
Source text: as §4, §1, §2, §3

HIV-1 variant K103N = test: as above; type: cell-based; conditions: for EC50: isolate K103N
Source text: as §4, §1, §2, §3

HIV-1 variant L100I = test: as above; type: cell-based
Source text: as §4, §1, §2, §3

HIV-1 variant L74V = test: as above; type: cell-based
Source text: as §4, §1, §2, §3

HIV-1 variant V106A = test: as above; type: cell-based
Source text: as §4, §1, §2, §3

HIV-1 variant V108I = test: as above; type: cell-based; conditions: isolate V1081
Source text: as §4, §1, §2, §3

HIV-1 variant V179D = test: as above; type: cell-based; conditions: isolate V179D
Source text: as §4, §1, §2, §3

HIV-1 variant Y188C = test: as above; type: cell-based
Source text: as §4, §1, §2, §3

[2] = tested on: HIV-1 isolate 4xAZT/L100I; test: as above; type: cell-based; conditions: Human immunodeficiency virus 1, MT4, Table 8; isolate 4XA7T L 1001
Description: The various HIV isolates tested in the Figures are those corresponding to wild-type virus (NL4-3) and the other strains listed by their RT mutations. The three 4xAZT isolates included in the Figures represent AZT drug-resistant variants. […]
as §1, with “Briefly,” for “In this Example, the antiviral and cellular toxicity of NNRTIs was investigated, using the cytopathic cell killing assay described by Yang (Yang et al., "Characteristics of a Group of Non-nucleoside Reverse Transcriptase Inhibitors with Structural Diversity and Potent Anti-Human Immunodeficiency Virus Activity," Leukemia 9:S75-S85 [1995]). Briefly,”
as §2
The in vitro therapeutic index (TI50) was defined as the fold-difference between the EC50 and IC50.

HIV-1 variant Y181C = test: as above; type: cell-based; conditions: Human immunodeficiency virus 1, MT4, Table 9; isolate Y181C
Source text: as §4, §1, §2, §3

[3] = Table 11, CEMSS/NL4-3, NRVC = reduction in viral CPE not seen (footnote)
[4] = Human immunodeficiency virus 1, NL43, MT4, Table 8, isolate N1.43
[5] = Human immunodeficiency virus 1, MT4, Table 8
[6] = Human immunodeficiency virus 1, MT4, Table 8, isolate A9SG
[7] = Human immunodeficiency virus 1, MT4, Table 8, isolate K101E
[8] = Human immunodeficiency virus 1, MT4, Table 8, isolate 1.1001
[9] = Human immunodeficiency virus 1, MT4, Table 8, isolate 1.74V
[10] = Human immunodeficiency virus 1, MT4, Table 8, isolate V 106A
[11] = Human immunodeficiency virus 1, MT4, Table 8, isolate Y 188C
[12] = Human immunodeficiency virus 1, MT4, Table 9

SMILES | EC50 (WT virus (NL4-3); [3]) | EC50 (NL4-3 (WT); [4]) | EC50 [1, 5] | EC50 (HIV-1 isolate 4xAZT; [5]) | EC50 (HIV-1 variant A98G; [6]) | EC50 (HIV-1 variant K101E; [7]) | EC50 (HIV-1 variant K103N; [5]) | EC50 (HIV-1 variant L100I; [8]) | EC50 (HIV-1 variant L74V; [9]) | EC50 (HIV-1 variant V106A; [10]) | EC50 (HIV-1 variant V108I; [5]) | EC50 (HIV-1 variant V179D; [5]) | EC50 (HIV-1 variant Y188C; [11]) | further results
CNc1cccc2c1nc(-c1c(F)cccc1F)n2Cc1c(F)cccc1F [compound 58, 1-(2,6-Difluorobenzyl)-2-(2,6-difluorophenyl)-4-(N-methylamino)-benzimidazole] | 1700 nM | 2600 nM | > 20000 nM | > 10000 nM | 8500 nM | > 20000 nM | > 20000 nM | 400 nM | 3900 nM | > 20000 nM | > 20000 nM | > 10000 nM | > 20000 nM | EC50 (WT virus (NL4-3); Table 7, concentration reducing cell killing or virus production by 50%, HIV-1 WT): 1700 nM; EC50 [2]: 1000 nM
Cc1ccnc2c1NC(=O)c1cccnc1N2C1CC1 [nevirapine, reference compound] | 35 nM | 40 nM | 3000 nM | > 500 nM | 800 nM | 1100 nM | > 10000 nM | 200 nM | 40 nM | > 10000 nM | 400 nM | 4900 nM | > 500 nM | EC50 (NL4-3 (WT); Human immunodeficiency virus 1, NL43, MT4, Table 9, isolate NL4.3): 40 nM; EC50 [1, 12]: 3000 nM; EC50 (HIV-1 isolate 4xAZT; [12]): > 500 nM; EC50 (HIV-1 variant A98G; Human immunodeficiency virus 1, MT4, Table 9, isolate A98G): 800 nM; EC50 (HIV-1 variant K101E; Human immunodeficiency virus 1, MT4, Table 9, isolate KIOIE): 1100 nM; EC50 (HIV-1 variant K103N; [12]): > 10000 nM; activity against the K103N mutation / isolate (HIV-1 variant K103N; result in words, cytopathic cell killing assay): ineffective; EC50 (HIV-1 variant L100I; Human immunodeficiency virus 1, MT4, Table 9, isolate L1001): 200 nM; EC50 (HIV-1 variant L74V; Human immunodeficiency virus 1, MT4, Table 9, isolate 1.74 V): 40 nM; EC50 (HIV-1 variant V106A; Human immunodeficiency virus 1, MT4, Table 9, isolate V106A): > 10000 nM; EC50 (HIV-1 variant V108I; [12]): 400 nM; EC50 (HIV-1 variant V179D; [12]): 200 nM; EC50 (HIV-1 variant Y181C): 4900 nM; EC50 (HIV-1 variant Y188C; Human immunodeficiency virus 1, MT4, Table 9, isolate Y188C): > 500 nM
